{"source": "patent US20210047398A1", "about": "“ASPROSIN, A FAST-INDUCED GLUCOGENIC PROTEIN HORMONE” (Baylor College of Medicine, priority 2016, published 2021)", "molecules": {"B1": {"name": "mammalian-generated asprosin: Human asprosin with C-terminal 6x His tag expressed in Expi293 mammalian cells, glycosylated (protein)", "chain": "STNETDASNIEDQSETEANVSLASWDVEKTAIFAFNISHVSNKVRILELLPALTTLTNHNRYLIESGNEDGFFKINQKEGISYLHFTKKKPVAGTYSLQISSTPLYKKKELNQLEDKYDKDYLSGELGDNLKMKIQVLLHHHHHHH"}}, "key": {"AgRP neurons": {"tested_on": "AgRP neurons", "assay": "Whole-cell patch clamp recordings on AgRP neurons", "format": "cell-based, mice", "settings": "for effect of pre-treating on asprosin-mediated AgRP neuron activation (firing frequency and resting membrane potential): 100 μM NKY80, 50 μM suramin, 20 μM NF449, 50 μM PTX, 1 μM PKI, 100 μM [D-Lys3]-GHRP-6", "procedure": "Electrophysiology—Whole-cell patch clamp recordings were performed on identified AgRP neurons or POMC neurons in the brain slices containing the arcuate nucleus of the hypothalamus (ARH). In particular, to identify AgRP neurons, the inventors crossed Rosa26-tdTOMATO allele onto the regular AgRP-Cre mice (Tong et al., 2008) to generate AgRP-Cre/Rosa26-tdTOMATO mice, which express TOMATO selectively in AgRP/NPY neurons. In some studies, the inventors crossed NPY-GFP mice (Pinto et al., 2004) with NPS mice to generate NPY-GFP mice with or without the NPS mutation, and GFP-labelled neurons in the arcuate nucleus were recorded. In order to record POMC neurons, the inventors crossed Rosa26-tdTOMATO allele onto the POMC-CreERT2 mice (Berglund et al., 2013) to generate POMC-CreERT2/Rosa26-tdTOMATO mice, which express TOMATO selectively in mature POMC neurons upon tamoxifen induction (0.2 mg/g, i.p. 6 weeks of age). In some studies, the inventors also crossed the AgRP-DTR allele onto POMC-GFP mice, and these mice received DT or saline injections (described above) to generate mice with or without AgRP neurons ablated.\nSix to twelve-week old mice were deeply anesthetized with isoflurane and transcardially perfused with a modified ice-cold sucrose-based cutting solution (pH 7.3) containing 10 mM NaCl, 25 mM NaHCO3, 195 mM Sucrose, 5 mM Glucose, 2.5 mM KCl, 1.25 mM NaH2PO4, 2 mM Na-Pyruvate, 0.5 mM CaCl2, and 7 mM MgCl2, bubbled continuously with 95% O2 and 5% CO2 (Ren et al., 2012). The mice were then decapitated, and the entire brain was removed and immediately submerged in the cutting solution. Slices (250 μm) were cut with a Microm HM 650V vibratome (Thermo Scientific). Three brain slices containing the arcuate nucleus were obtained for each animal (Bregma −2.06 mm to −1.46 mm; Interaural 1.74 mm to 2.34 mm), and recordings were made at levels throughout this brain region. The slices were recovered for 1 h at 34° C. and then maintained at room temperature in artificial cerebrospinal fluid (aCSF, pH 7.3) containing 126 mM NaCl, 2.5 mM KCl, 2.4 mM CaCl2, 1.2 mM NaH2PO4, 1.2 mM MgCl2, 11.1 mM glucose, and 21.4 mM NaHCO3) saturated with 95% O2 and 5% CO2 before recording.\nSlices were transferred to a recording chamber and allowed to equilibrate for at least 10 min before recording. The slices were superfused at 34° C. in oxygenated aCSF at a flow rate of 1.8-2 ml/min. GFP or TOMATO-labeled neurons in the ARH were visualized using epifluorescence and IR-DIC imaging on an upright microscope (Eclipse FN-1, Nikon) equipped with a moveable stage (MP-285, Sutter Instrument). Patch pipettes with resistances of 3-5 MΩ were filled with intracellular solution (pH 7.3) containing 128 mM K-Gluconate, 10 mM KCl, 10 mM HEPES, 0.1 mM EGTA, 2 mM MgCl2, 0.05 mM Na-GTP and 0.05 mM Mg-ATP. Recordings were made using a MultiClamp 700B amplifier (Axon Instrument), sampled using Digidata 1440A and analyzed offline with pClamp 10.3 software (Axon Instruments). Series resistance was monitored during the recording, and the values were generally <10 MΩ and were not compensated. The liquid junction potential was +12.5 mV, and was corrected after the experiment. Data were excluded if the series resistance increased dramatically during the experiment or without overshoot for action potential. Currents were amplified, filtered at 1 kHz, and digitized at 20 kHz. Current clamp was engaged to test neural firing frequency and resting membrane potential (RM) at the baseline and puff delivered recombinant Asprosin (500 ms at various concentrations indicated in the figures). For the asprosin antibody pre-incubation experiment, asprosin and anti-asprosin mAB or IgG were gently mixed at a 1:100 ratio, and then kept on ice for one hour before recording. After AgRP or POMC neuron response to asprosin alone was confirmed, the mixture of recombinant asprosin and anti-asprosin mAB or IgG was perfused to treat the AgRP or POMC neurons for 4 minutes. […]"}, "[1]": {"assay": "SPECT scans and gamma counting after intravenous I125-asprosin", "format": "in vivo, mice", "settings": "15 minutes after intravenous injection of 150 μCi", "procedure": "FIGS. 22A-22E: Asprosin traffics to the liver in vivo and binds the hepatocyte surface with high affinity in a saturable and competitive manner. (FIG. 22A) SPECT scans were performed 15 minutes after intravenous injection with 150 μCi I125-asprosin, boiled I125-asprosin, or free I125 in live, anesthetized mice previously injected with bismuth as a hepatic contrast agent. 3 representative images are shown in axial and coronal planes. (FIG. 22B) Liver asprosin accumulation was measured as liver photon intensity from mice in (FIG. 22A). (FIG. 22C) Tissue radioactivity (normalized to tissue weight) was measured using a γ-counter after sacrificing mice from (FIG. 22A), 45 minutes following injection (n=4 mice). (FIG. 22D) Sandwich ELISA was used to measure plasma His tag (recombinant asprosin contains an N-terminal His tag) in WT mice before injection and 15, 30, 60 and 120 minutes after injection with 30 μg recombinant asprosin. The time taken for peak signal to fall to half-maximal level is indicated by the arrow. […] Specific binding (shown in red) was calculated as the difference between the two curves. Data are represented as the mean±SEM.\nRecombinant asprosin was labeled with iodine-125 (I^125) and injected intravenously in mice, followed by single-photon emission computerized tomography (SPECT) scans to identify sites of accumulation. […]"}, "[2]": {"tested_on": "mouse primary hepatocytes", "procedure": "Cell Culture. Primary mouse hepatocytes were isolated from 8- to 12-week-old WT mice using standard methodology. […] The cells were treated with 50 nM recombinant asprosin or GFP for 10 minutes for cAMP and PKA assays and for 2 hours for the in vitro glucose production assay. Cells were pretreated with various inhibitors for 1 hour prior to treatment with asprosin, GFP, Glucagon or Epinephrine. cAMP was measured from cell lysates using the cAMP direct immunoassay kit from Cell Biolabs. PKA activity was measured from cell lysates using the PKA kinase activity kit from Enzo Lifesciences, Inc. Media glucose content was measured using the Glucose Colorimetric Assay Kit from Biovision. Results were normalized to protein content."}, "[3]": {"assay": "Food intake, energy expenditure and body composition after asprosin gain-of-function", "format": "in vivo, mice", "settings": "single subcutaneous dose, C57Bl/6 mice, vs GFP", "procedure": "Mouse food intake and energy expenditure—Food intake and energy expenditure were measured using the CLAMS System (Comprehensive Lab Animal Monitoring System, Columbus Instruments). Animals were acclimatized in the recording chambers for 48-72 hours, and measurements were taken subsequently for 24 hours during the light cycle and dark cycle. Mice received food and water ad libitum, or after an overnight fast where indicated. Oxygen consumption and food intake were recorded.\nAs previously described (Yan et al., 2016), male mice were anesthetized with inhaled isoflurane and stainless steel cannulas (Plastics One) were inserted into the lateral ventricles (0.34 mm caudal and 1 mm lateral from bregma; depth, 2.3 mm). […] These mice received 10 ng GFP ([…]) twice a day for 3 continuous days, and 10 ng asprosin (in […]) the last day. The BioDAQ food intake monitoring system (Research Diets, Inc) was used to monitor the food intake, and the food intake from the last GFP injection and asprosin were compared.\nMouse body composition—Body composition was analyzed using an ECHO-MRI system (Echo medical systems, Texas) or DEXA scans where indicated. Lean mass, fat mass, and overall body weight were calculated using the manufacturer-provided software."}, "[4]": {"assay": "Asprosin plasma half-life (biotinylated asprosin sandwich ELISA)", "format": "in vivo", "settings": "mammalian cell expressed asprosin, subcutaneous, mice, FIG. 50B", "procedure": "Asprosin Plasma Half-life—Asprosin expressed in HEK293 was labeled with biotin using a EZ-Link Sulfo-NHS-Biotin kit (Thermo Scientific), and excess biotin was removed using a Zeba Spin desalting column (Thermo Scientific). Final protein concentration was estimated using a BCA assay (Thermo Scientific). Approximately 30 ug/mouse of labeled asprosin was injected subcutaneously into C57Bl/6 mice. Blood was drawn before injection (baseline), and 30, 60, 120, and 360 minutes after injection, as well as after 24 and 48 hours. Biotinylated asprosin was detected using a custom designed sandwich ELISA. A plate was coated with the anti-asprosin monoclonal antibody (capture antibody), total plasma asprosin was bound, and only biotinylated asprosin was detected using Streptavidin-HRP."}}, "data": [{"molecule": "O=C(Nc1cc(C(=O)Nc2ccc(S(=O)(=O)[O-])cc2S(=O)(=O)[O-])cc(C(=O)Nc2ccc(S(=O)(=O)[O-])cc2S(=O)(=O)[O-])c1)Nc1cc(C(=O)Nc2ccc(S(=O)(=O)[O-])cc2S(=O)(=O)[O-])cc(C(=O)Nc2ccc(S(=O)(=O)[O-])cc2S(=O)(=O)[O-])c1.[Na+].[Na+].[Na+].[Na+].[Na+].[Na+].[Na+].[Na+]", "note": "[NF449, reference compound]", "values": [{"measurement": "effect of pre-treating on asprosin-mediated AgRP neuron activation (firing frequency and resting membrane potential)", "setting": "AgRP neurons", "value": "completely prevented"}]}, {"molecule": "[D-Lys3]-GHRP-6 [reference compound]", "values": [{"measurement": "effect of pre-treating on asprosin-mediated AgRP neuron activation (firing frequency and resting membrane potential)", "setting": "AgRP neurons", "value": "no impact"}]}, {"molecule": "PTX: Gαi inhibitor [reference compound]", "values": [{"measurement": "effect of pre-treating on asprosin-mediated AgRP neuron activation (firing frequency and resting membrane potential)", "setting": "AgRP neurons", "value": "no impact"}]}, {"molecule": "Nc1ncc2c(n1)CC(c1ccco1)CC2=O", "note": "(stereo not drawn) [NKY80, reference compound]", "values": [{"measurement": "effect of pre-treating on asprosin-mediated AgRP neuron activation (firing frequency and resting membrane potential)", "setting": "AgRP neurons", "value": "completely prevented"}]}, {"molecule": "I^125-Asprosin: Recombinant asprosin labeled with iodine-125", "values": [{"measurement": "site of accumulation (SPECT, liver photon intensity)", "setting": "[1]", "value": "trafficked primarily to the liver"}]}, {"molecule": "Cc1ccc(C(=O)Nc2ccc(S(=O)(=O)O)c3cc(S(=O)(=O)O)cc(S(=O)(=O)O)c23)cc1NC(=O)c1cccc(NC(=O)Nc2cccc(C(=O)Nc3cc(C(=O)Nc4ccc(S(=O)(=O)O)c5cc(S(=O)(=O)O)cc(S(=O)(=O)O)c45)ccc3C)c2)c1", "note": "[suramin, reference compound]", "values": [{"measurement": "effect on asprosin-mediated hepatocyte PKA activation", "setting": "[2]", "value": "blocked"}, {"measurement": "effect of pre-treating on asprosin-mediated AgRP neuron activation (firing frequency and resting membrane potential)", "setting": "AgRP neurons", "value": "completely prevented"}]}, {"molecule": "B1", "values": [{"measurement": "food intake over the next 24-hr", "setting": "[3]", "value": "greater food intake"}, {"measurement": "dose-dependency of AgRP neuron activation (firing frequency, membrane potential)", "setting": "AgRP neurons; 0.01-100 nM, intact slices", "value": "dose-dependent activation"}, {"measurement": "EC50 for AgRP neuron activation", "setting": "AgRP neurons; firing frequency and membrane potential", "value": "nanomolar to subnanomolar range"}, {"measurement": "plasma half-life", "setting": "[4]", "value": "~2.42", "unit": "h"}, {"measurement": "plasma half-life", "setting": "[4]; listed as Mammalian asprosin", "value": "approximately 145 minutes"}]}]}
